{
  "source": "patent US12324841B2",
  "about": "“Methods of treating cancer with a combination of an anti-PD-1 antibody and an anti-tissue factor antibody-drug conjugate” (GENMAB A/S, priority 2018, dated 2025)",
  "key": {"[1]": {"tested_on": "MDA-MB-231 cells (breast adenocarcinoma)", "experiment": "MDA-MB-231 xenograft model in humanized NSG mice", "type": "in vivo", "settings": "IV, weekly", "experimental": "Mice were subcutaneously inoculated with 5×10^6 MDA-MB-231 cells (breast adenocarcinoma; American Tissue Culture Collection (ATCC), cat. no. HTB-26), in 100 μL phosphate-buffered saline (PBS). Before inoculation, cells were cultured in DMEM with high glucose and HEPES without L-glutamine (Lonza, cat. no. BE12-[…]), 10% (v/v) donor bovine serum with iron New Zealand Origin (Thermo Fisher Scientific, DBSI, cat. no. 10371-029), 2 mM L-glutamine (Lonza, cat. no. BE17-[…]), 1 mM Na-pyruvate (Lonza, cat. no. BE13-[…]), MEM non-essential amino acids (Life Technologies, cat. no. 11140) and 1% (v/v) penicillin/streptomycin (Lonza, cat. no. DE17-[…]), in CellSTACK culture chambers (Corning, cat. no. 3313). Tumor size was determined by caliper measurement at least two times a week and tumor volume was calculated as 0.52×length×width^2. […] The first dose of the anti-PD-1 antibody (i.e., pembrolizumab) was 10 mg/kg, followed by 5 mg/kg every five days for a maximum of six treatments. […] The IgG1 isotype control antibody is the b12 antibody which is known to bind to HIV-1 gp120. […] Mice were housed in individually ventilated (IVC) cages, five mice per cage and identified by ear tags. […] Statistical comparison of tumor burden was performed using Mann-Whitney analysis on the last day that all treatment groups were intact. Kaplan-Meier analysis was performed based on tumor volume (>500 mm^3)."}, "[2]": {"tested_on": "murine tumor cells that stably express human TF", "experiment": "Syngeneic tumor model: immunization with drug-killed human TF positive murine tumor cells, then tumor challenge", "type": "in vivo, Balb/c mice", "settings": "mice immunized with tumor cells killed by 1-5 μg per ml tisotumab vedotin or 100 nM MMAE", "experimental": "Mouse tumor cells are transfected with plasmid constructs encoding human tissue factor (TF) and sgRNA-guided Cas9 nuclease (sgRNA/Cas9) to generate a murine cell line that expresses the human TF. Fluorescence activated cell sorting (FACS) yields a clonal population of murine tumor cells that stably express human TF, these cells are then treated with 1 μg to 5 μg per ml of tisotumab vedotin or 100 nM of MMAE for 4 days. In order to prepare dying cells for immunization, treated murine tumor cells are overlaid atop Histopaque, and centrifuged at 2000 g for 30 minutes. Dead and dying cells are pelleted underneath the Histopaque layer, and viability assessed by trypan blue exclusion. A sample with approximately <20% live cells as measured by trypan blue exclusion is obtained. Flash-frozen tumor cells are prepared by submerging the cells in liquid nitrogen for 10 seconds, followed by immersion in 37° C. water until completely thawed. The liquid nitrogen freeze-thaw process is repeated 5 times. Dead and dying human TF positive tumor cells are resuspended in phosphate buffered saline (PBS) and 2×10^6 cells are injected into the peritoneum of immune-competent Balb/c mice. Seven days later, mice receive a second immunization with dead and dying cells prepared in the same manner.\nFourteen days after initial immunization with the dead and dying human TF positive tumor cells, mice are subcutaneously implanted with 5×10^6 wild-type tumor cells and monitored for tumor growth. […] As these effects occur in the absence of any administered therapeutic agent, the administration of cells killed by tisotumab vedotin or MMAE is sufficient to generate long-lasting protective immune memory against subsequent tumor cell challenge. Protective immune memory is amplified by treating these mice with tisotumab vedotin in combination with an antibody that binds to murine PD-1."}, "[3]": {"tested_on": "Tissue Factor positive cell lines", "experiment": "Cell death and release of ATP and HMGB1 from Tissue Factor positive cell lines", "type": "cell-based", "source_text": "Auristatin ADC payloads disrupt the microtubule networks resulting in altered ER localization and function, which ultimately results in ER stress."}, "[4]": {"tested_on": "HPAFII (pancreatic carcinoma)", "experiment": "Western blot analysis of ER stress induction in HPAFII cells", "type": "cell-based", "settings": "18 hours (legend: 16 hours)", "experimental": "(§1) Induction of cell death and release of ICD danger signals occurs concomitant with initiation of an ER stress response. Two Tissue Factor positive cell lines, HPAFII (pancreatic carcinoma) and MDA-MB-231 (breast cell carcinoma) were exposed to tisotumab vedotin ADC, an Isotype-MMAE ADC (H00-MMAE, IgG1 MMAE), or free MMAE for 18 hours and induction of ER stress monitored by western blot analysis. Phosphorylation of inositol-requiring transmembrane kinase/endonuclease 1 (IRE1) was detected after treatment with tisotumab vedotin ADC or MMAE free drug (FIG. 6). […] The ability for auristatins to prime the immune system to recognize tumor antigens opens the door for a myriad of combinatorial therapeutic options."}, "[5]": {"tested_on": "MDA-MB-231 (breast cell carcinoma)", "experiment": "Western blot analysis of ER stress induction in MDA-MB-231 cells", "type": "cell-based", "settings": "MDA-MB-231, 18 hours (legend: 16 hours)", "experimental": "as §1"}, "T cells": {"tested_on": "T cells", "experiment": "T cell activation in CSFE labeled PBMCs fed killed MDA-MB-231 cells, with or without pembrolizumab", "type": "cell-based, human", "settings": "48 hours, without pembrolizumab", "experimental": "FIG. 8A-8C is a series of graphs in which Tissue Factor positive MDA-MB-231 cells killed with various agents were fed to CSFE labeled human peripheral blood mononuclear cells (PBMCs) in the presence or absence of the PD1 targeting antibody pembrolizumab for 48 hours and T cells activation assessed by A) decreased CSFE fluorescent indicative of T cell proliferation and B) and C) cytokine production.\nInduction of the innate immune response following exposure to cancer cells undergoing ICD sets up secondary T cell activation, which can be enhanced by concomitant pembrolizumab treatment."}},
  "note": "Entries after “also recorded” stand apart in the source; their conditions may differ.",
  "data": [
    {"substance": "tisotumab vedotin: antibody-drug conjugate comprising an antibody that binds to tissue factor (TF), a protease-cleavable linker, and the microtubule disrupting agent MMAE", "values": [
      {"measurement": "tumor burden as assessed by tumor volume", "setting": "[1]; tisotumab vedotin alone 0.5 mg/kg", "result": "efficiently reduced tumor burden"},
      {"measurement": "tumor burden as assessed by tumor volume", "setting": "[1]; tisotumab vedotin alone 1.0 mg/kg", "result": "efficiently reduced tumor burden"},
      {"measurement": "survival after challenge with wild-type tumor cells", "setting": "[2]", "result": "increased survival"},
      {"measurement": "tumor growth after challenge with wild-type tumor cells", "setting": "[2]", "result": "delayed tumor growth"},
      {"measurement": "cell death", "setting": "[3]", "result": "undergo cell death"},
      {"measurement": "ATP release/secretion", "setting": "[3]; FIG. 5A", "result": "drove robust A) ATP secretion; also recorded: release the ICD related molecules ATP"},
      {"measurement": "activity on multiple Tissue Factor positive cell lines", "setting": "[3]; FIG. 5B", "result": "active on multiple Tissue Factor positive cell lines"},
      {"measurement": "HMGB1 release/secretion", "setting": "[3]; FIG. 5C", "result": "drove robust A) ATP secretion and C) HMGB1 release; also recorded: release the ICD related molecules ATP (FIG. 5A) and HMGβ1"},
      {"measurement": "ATF4 cleavage (PERK pathway)", "setting": "[4]", "result": "upregulation of ATF4 cleavage"},
      {"measurement": "phosphorylation of IRE1", "setting": "[4]", "result": "detected"},
      {"measurement": "phosphorylation of JNK", "setting": "[4]", "result": "increased phosphorylation"},
      {"measurement": "ATF4 cleavage (PERK pathway)", "setting": "[5]", "result": "upregulation of ATF4 cleavage"},
      {"measurement": "phosphorylation of IRE1", "setting": "[5]", "result": "detected"},
      {"measurement": "phosphorylation of JNK", "setting": "[5]", "result": "increased phosphorylation"},
      {"measurement": "T cell proliferation (CSFE dilution)", "setting": "T cells", "result": "drove T cell proliferation"},
      {"measurement": "production of IFNγ", "setting": "T cells", "result": "production of T cell specific cytokines such as IL12P70 and IFNγ"},
      {"measurement": "production of IL12p70", "setting": "T cells", "result": "production of T cell specific cytokines such as IL12P70 and IFNγ"}
    ]}
  ]
}
